In US20260001928A1 (CORTERIA PHARMACEUTICALS, priority 2022, published 2026):
*1 amine or outer side, *2 acyl side, *3 side chain or, on linkers, in order; H or OH if unused. Where a SMILES comes first, the peptide text is derived from it. Side-chain parts run from the residue outwards. [ ]: non-standard residue; d: D form. The star is where a group is joined. C18 diacid = O=C(O)CCCCCCCCCCCCCCCCC(=O)*; C16 diacid = O=C(O)CCCCCCCCCCCCCCC(=O)*; γGlu = O=C(O)[C@H](CCC(=O)[*:2])N[*:1]; NMeI = CC[C@H](C)[C@H](NC)C(=O)O; αMeL = CC(C)C[C@](C)(N)C(=O)O; Pentanoyl = CCCCC(=O)*; AEEA = NCCOCCOCC(=O)O; Aib = CC(C)(N)C(=O)O

Key:
CFR1R receptor = molecular target: T1, CFR1R receptor (Homo sapiens, UniProt P34998); test: Activity at anti-target CFR1R receptor, cAMP assay in CRF1R-overexpression CHO-K1 cells; assay type: cell-based; settings: 100% = Sauvagine at 100 nM; for EC50: cAMP
T1 construct: host or cells: CHO-K1 (clone 2)
T1 sequence (P34998 24-415): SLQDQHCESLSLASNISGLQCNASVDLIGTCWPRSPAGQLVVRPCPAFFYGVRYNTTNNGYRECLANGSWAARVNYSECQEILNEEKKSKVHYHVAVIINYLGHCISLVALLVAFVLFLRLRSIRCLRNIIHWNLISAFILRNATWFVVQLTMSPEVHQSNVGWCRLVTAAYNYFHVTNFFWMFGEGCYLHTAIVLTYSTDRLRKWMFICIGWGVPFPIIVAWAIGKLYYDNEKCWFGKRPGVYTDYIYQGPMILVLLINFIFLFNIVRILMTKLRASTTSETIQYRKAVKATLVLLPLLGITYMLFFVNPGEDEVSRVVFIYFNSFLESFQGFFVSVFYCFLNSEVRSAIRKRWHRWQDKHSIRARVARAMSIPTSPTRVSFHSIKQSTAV
How it was run: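 cAMP readout in CRF1R-overexpressing CHO-K1 cells (clone 2), run as for the TeloHAEC assay at 4000 cells/well final. Cells came from cryopreserved banks. Sauvagine at 100 nM defined 100% activation.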

human CRF2a receptor = molecular target: T2, human CRF2a receptor (Homo sapiens, UniProt Q13324); test: Activity at human CRF2a receptor, cAMP functional assay in TeloHEAC cells; assay type: cell-based; settings: TeloHEAC cells stably expressing human CRF2a receptor, relative to urocortin 2 (100 nM = 100%)
T2 construct: expressed in transfected cells; host or cells: TeloHEAC cells
T2 sequence (Q13324 1-411): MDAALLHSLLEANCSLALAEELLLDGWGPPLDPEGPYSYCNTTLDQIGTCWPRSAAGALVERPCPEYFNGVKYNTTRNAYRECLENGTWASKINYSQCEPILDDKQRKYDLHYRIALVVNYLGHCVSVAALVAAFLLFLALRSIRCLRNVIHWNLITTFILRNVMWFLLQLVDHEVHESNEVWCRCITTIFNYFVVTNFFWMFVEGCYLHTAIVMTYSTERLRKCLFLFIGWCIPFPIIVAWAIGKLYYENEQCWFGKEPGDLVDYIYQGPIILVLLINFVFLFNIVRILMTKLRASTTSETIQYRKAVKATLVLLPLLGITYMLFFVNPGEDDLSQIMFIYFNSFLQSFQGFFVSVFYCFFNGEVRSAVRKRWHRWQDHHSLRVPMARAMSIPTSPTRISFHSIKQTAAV
How it was run: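 cAMP accumulation was measured by HTRF 665/620 nm ratio after 30 min at 37° C compound exposure (16 twofold dilutions) of CRF2a-expressing TeloHEAC cells, 10000/well, in HEPES-buffered HBSS plus IBMX. Activity was normalised to urocortin 2 at 100 nM (100%), and EC50 was the concentration giving half-maximal activation.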

CCCCC(=O)N[C@H](C(=O)N[C@@H](CC(C)C)C(=O)N[C@@H](CO)C(=O)N[C@@H](CC(C)C)C(=O)N[C@@H](CC(=O)O)C(=O)N[C@@H](C(=O)N1CCC[C@H]1C(=O)N[C@H](C(=O)N[C@@H](CCCCN)C(=O)N[C@@H](CC(C)C)C(=O)N[C@@H](CCCCNC(=O)CC[C@H](NC(=O)CCCCCCCCCCCCCCC(=O)O)C(=O)O)C(=O)N[C@@H](CCC(N)=O)C(=O)NC(C)(C)C(=O)N[C@@H](CC(C)C)C(=O)N[C@@H](CC(C)C)C(=O)N[C@@H](CCCCN)C(=O)N[C@@H](CCC(N)=O)C(=O)N[C@@H](CCC(=O)O)C(=O)N[C@@H](CCCNC(=N)N)C(=O)N[C@@H](CCC(N)=O)C(=O)N[C@@H](CCCCN)C(=O)N[C@@H](CCCCN)C(=O)N[C@@H](CCC(N)=O)C(=O)N[C@@H](CCCNC(=N)N)C(=O)N[C@@H](CCC(=O)O)C(=O)N[C@@H](CCC(N)=O)C(=O)N[C@@H](C)C(=O)N[C@@H](CCC(=O)O)C(=O)N[C@@H](CCCCN)C(=O)N[C@@H](CC(N)=O)C(=O)N[C@H](C(=O)N[C@@H](CCC(N)=O)C(=O)N[C@H](C(=O)N[C@@H](CC(C)C)C(=O)N[C@@H](CCC(=O)O)C(=O)N[C@@H](CCC(N)=O)C(=O)N[C@H](C(N)=O)C(C)C)[C@@H](C)CC)C(C)C)[C@@H](C)CC)C(C)C)C(C)C [compound 22] (Pentanoyl-VLSLD[dV]PIKLK([γGlu-C16 diacid])Q[Aib]LLKQERQKKQREQAEKNVQILEQV-NH2)
Emax (% I) (CFR1R receptor): 3 % I | EC50 (CFR1R receptor): > 250 nM | EC50 (human CRF2a receptor): 4.44 nM

CC[C@H](C)[C@H](NC(C)=O)C(=O)N[C@H](C(=O)N[C@@H](CC(C)C)C(=O)N[C@@H](CO)C(=O)N[C@@H](CC(C)C)C(=O)N[C@@H](CC(=O)O)C(=O)N[C@@H](C(=O)N1CCC[C@H]1C(=O)N[C@H](C(=O)N[C@@H](CCCCN)C(=O)N[C@@](C)(CC(C)C)C(=O)N[C@@H](CCCCNC(=O)COCCOCCNC(=O)COCCOCCNC(=O)CC[C@H](NC(=O)CCCCCCCCCCCCCCCCC(=O)O)C(=O)O)C(=O)N[C@@H](CCCCN)C(=O)N[C@H](C(=O)N[C@@H](CC(C)C)C(=O)N[C@@H](CC(C)C)C(=O)N[C@@H](CCC(=O)O)C(=O)N[C@@H](CCC(N)=O)C(=O)N[C@@H](CCC(=O)O)C(=O)N[C@@H](CCCCN)C(=O)N[C@@H](CCC(N)=O)C(=O)N[C@@H](CCCCN)C(=O)N[C@@H](CCCCN)C(=O)N[C@@H](CCC(N)=O)C(=O)N[C@@H](CCCNC(=N)N)C(=O)N[C@@H](CCC(=O)O)C(=O)N[C@@H](CCC(N)=O)C(=O)N[C@@H](C)C(=O)N[C@@H](CCC(=O)O)C(=O)N[C@H](C(=O)N[C@@H](CC(N)=O)C(=O)N[C@H](C(=O)N[C@@H](CCC(N)=O)C(=O)N[C@H](C(=O)N[C@@H](CC(C)C)C(=O)N[C@@H](C)C(=O)N[C@@H](CCC(N)=O)C(=O)N[C@H](C(N)=O)C(C)C)[C@@H](C)CC)C(C)C)[C@@H](C)O)[C@@H](C)CC)[C@@H](C)CC)C(C)C)C(C)C [compound 111] (Ac-IVLSLD[dV]PIK[αMeL]K([AEEA-AEEA-γGlu-C18 diacid])KILLEQEKQKKQREQAETNVQILAQV-NH2)
Emax (% I) (CFR1R receptor): −3 % I | EC50 (CFR1R receptor): > 250 nM | EC50 (human CRF2a receptor): 2.58 nM

CC[C@H](C)[C@H](NC(C)=O)C(=O)N[C@H](C(=O)N[C@@H](CC(C)C)C(=O)N[C@@H](CO)C(=O)N[C@@H](CC(C)C)C(=O)N[C@@H](CC(=O)O)C(=O)N[C@@H](C(=O)N1CCC[C@H]1C(=O)N[C@H](C(=O)N[C@@H](CCCCN)C(=O)N[C@@H](CC(C)C)C(=O)N[C@@H](CCCCNC(=O)COCCOCCNC(=O)COCCOCCNC(=O)CC[C@H](NC(=O)CCCCCCCCCCCCCCC(=O)O)C(=O)O)C(=O)N[C@@H](CCCCN)C(=O)N[C@H](C(=O)N[C@@H](CC(C)C)C(=O)N[C@@H](CC(C)C)C(=O)N[C@@H](CCC(=O)O)C(=O)N[C@@H](CCC(N)=O)C(=O)N[C@@H](CCC(=O)O)C(=O)N[C@@H](CCCCN)C(=O)N[C@@H](CCC(N)=O)C(=O)N[C@@H](CCCCN)C(=O)N[C@@H](CCCCN)C(=O)N[C@@H](CCC(N)=O)C(=O)N[C@@H](CCCNC(=N)N)C(=O)N[C@@H](CCC(=O)O)C(=O)N[C@@H](CCC(N)=O)C(=O)N[C@@H](C)C(=O)N[C@@H](CCC(=O)O)C(=O)N[C@H](C(=O)N[C@@H](CC(N)=O)C(=O)NC(C)(C)C(=O)N[C@@H](CCC(N)=O)C(=O)N[C@H](C(=O)N[C@@H](CC(C)C)C(=O)N[C@@H](C)C(=O)N[C@@H](CCC(N)=O)C(=O)N[C@H](C(N)=O)C(C)C)[C@@H](C)CC)[C@@H](C)O)[C@@H](C)CC)[C@@H](C)CC)C(C)C)C(C)C [compound 42] (Ac-IVLSLD[dV]PIKLK([AEEA-AEEA-γGlu-C16 diacid])KILLEQEKQKKQREQAETN[Aib]QILAQV-NH2)
Emax (% I) (CFR1R receptor): 1 % I | EC50 (CFR1R receptor): > 250 nM | EC50 (human CRF2a receptor): 3.08 nM

CC[C@H](C)[C@H](NC(C)=O)C(=O)N[C@H](C(=O)N[C@@H](CC(C)C)C(=O)N[C@@H](CO)C(=O)N[C@@H](CC(C)C)C(=O)N[C@@H](CC(=O)O)C(=O)N[C@H](C(=O)N1CCC[C@H]1C(=O)N[C@H](C(=O)N[C@@H](CCCCN)C(=O)N[C@@](C)(CC(C)C)C(=O)N[C@@H](CCCCNC(=O)CC[C@H](NC(=O)CCCCCCCCCCCCCCC(=O)O)C(=O)O)C(=O)N[C@@H](CCCCN)C(=O)N[C@H](C(=O)N[C@@H](CC(C)C)C(=O)N[C@@H](CC(C)C)C(=O)N[C@@H](CCC(=O)O)C(=O)N[C@@H](CCC(N)=O)C(=O)N[C@@H](CCC(=O)O)C(=O)N[C@@H](CCCCN)C(=O)N[C@@H](CCC(N)=O)C(=O)N[C@@H](CCCCN)C(=O)N[C@@H](CCCCN)C(=O)N[C@@H](CCC(N)=O)C(=O)N[C@@H](CCCNC(=N)N)C(=O)N[C@@H](CCC(=O)O)C(=O)N[C@@H](CCC(N)=O)C(=O)N[C@@H](C)C(=O)N[C@@H](CCC(=O)O)C(=O)N[C@H](C(=O)N[C@@H](CC(N)=O)C(=O)N[C@H](C(=O)N[C@@H](CCC(N)=O)C(=O)N[C@H](C(=O)N[C@@H](CC(C)C)C(=O)N[C@@H](C)C(=O)N[C@@H](CCC(N)=O)C(=O)N[C@H](C(N)=O)C(C)C)[C@@H](C)CC)C(C)C)[C@@H](C)O)[C@@H](C)CC)[C@@H](C)CC)C(C)C)C(C)C [compound 49] (Ac-IVLSLDVPIK[αMeL]K([γGlu-C16 diacid])KILLEQEKQKKQREQAETNVQILAQV-NH2)
Emax (% I) (CFR1R receptor): −3 % I | EC50 (CFR1R receptor): > 250 nM | EC50 (human CRF2a receptor): 0.92 nM

CC[C@H](C)[C@H](NC)C(=O)N[C@H](C(=O)N[C@@H](CC(C)C)C(=O)N[C@@H](CO)C(=O)N[C@@H](CC(C)C)C(=O)N[C@@H](CC(=O)O)C(=O)N[C@@H](C(=O)N1CCC[C@H]1C(=O)N[C@H](C(=O)N[C@@H](CCCCN)C(=O)N[C@@](C)(CC(C)C)C(=O)N[C@@H](CCCCNC(=O)CC[C@H](NC(=O)CCCCCCCCCCCCCCC(=O)O)C(=O)O)C(=O)N[C@@H](CCCCN)C(=O)N[C@H](C(=O)N[C@@H](CC(C)C)C(=O)N[C@@H](CC(C)C)C(=O)N[C@@H](CCC(=O)O)C(=O)N[C@@H](CCC(N)=O)C(=O)N[C@@H](CCC(=O)O)C(=O)N[C@@H](CCCCN)C(=O)N[C@@H](CCC(N)=O)C(=O)N[C@@H](CCCCN)C(=O)N[C@@H](CCCCN)C(=O)N[C@@H](CCC(N)=O)C(=O)N[C@@H](CCCNC(=N)N)C(=O)N[C@@H](CCC(=O)O)C(=O)N[C@@H](CCC(N)=O)C(=O)N[C@@H](C)C(=O)N[C@@H](CCC(=O)O)C(=O)N[C@H](C(=O)N[C@@H](CC(N)=O)C(=O)N[C@H](C(=O)N[C@@H](CCC(N)=O)C(=O)N[C@H](C(=O)N[C@@H](CC(C)C)C(=O)N[C@@H](C)C(=O)N[C@@H](CCC(N)=O)C(=O)N[C@H](C(N)=O)C(C)C)[C@@H](C)CC)C(C)C)[C@@H](C)O)[C@@H](C)CC)[C@@H](C)CC)C(C)C)C(C)C [compound 67] (H-[NMeI]VLSLD[dV]PIK[αMeL]K([γGlu-C16 diacid])KILLEQEKQKKQREQAETNVQILAQV-NH2)
Emax (% I) (CFR1R receptor): 8 % I | EC50 (CFR1R receptor): > 250 nM | EC50 (human CRF2a receptor): 0.34 nM
